Data reported in patent US20100204203A1, “Chemical Compounds 637: Pyridopyrimidinediones as PDE4 Inhibitors” (priority 2007, published 2010).

Biological target: recombinant Human Phosphodiesterase B2 (PDE4B2) (Homo sapiens, UniProt Q07343)
Assay: Human Phosphodiesterase B2 Radiometric Assay (yttrium silicate SPA beads, [3H]cyclic AMP)
Format: biochemical
Conditions: for IC50: recombinant human PDE4B2, radiometric SPA assay, 8 nM [3H]cyclic AMP, read-out: PDE4B2 pIC50 (converted)
Procedure: Human Phosphodiesterase B2 Radiometric Assay
The assay uses recombinant Human Phosphodiesterase B2 (PDE4B2) produced in house (PrAZL0163), stored at −20° C. This assay is based on the observation that 5′AMP, the product of the reaction catalysed by PDE4, binds preferentially to yttrium silicate SPA beads (Amersham Biosciences, UK) compared to the substrate, cAMP. Compounds at the appropriate concentration were preincubated at 30 C for 30 min with an assay buffer containing 50 mM HEPES (pH 7.5), 8.3 mM MgCl2, 1.7 mM EGTA, 0.01% (w/v) Brij° 35 and 0.1 mg/mL recombinant PDE4B2. The reaction was started by the addition of [3H]cyclic AMP to give a final concentration of 8 nM, and was stopped 20 minutes after the addition of the substrate by the addition of yttrium silicate SPA beads containing 18 mM Zn SO4. Bound [3H]cyclic AMP was measured using a Topcount NXT (Packard Bioscience, UK). pIC50 values (presented in Table 15) were determined using Xlfit3 curve fitting, using model 205.

Chain of recombinant Human Phosphodiesterase B2 (PDE4B2) (Q07343 1-564 isoform Q07343-2): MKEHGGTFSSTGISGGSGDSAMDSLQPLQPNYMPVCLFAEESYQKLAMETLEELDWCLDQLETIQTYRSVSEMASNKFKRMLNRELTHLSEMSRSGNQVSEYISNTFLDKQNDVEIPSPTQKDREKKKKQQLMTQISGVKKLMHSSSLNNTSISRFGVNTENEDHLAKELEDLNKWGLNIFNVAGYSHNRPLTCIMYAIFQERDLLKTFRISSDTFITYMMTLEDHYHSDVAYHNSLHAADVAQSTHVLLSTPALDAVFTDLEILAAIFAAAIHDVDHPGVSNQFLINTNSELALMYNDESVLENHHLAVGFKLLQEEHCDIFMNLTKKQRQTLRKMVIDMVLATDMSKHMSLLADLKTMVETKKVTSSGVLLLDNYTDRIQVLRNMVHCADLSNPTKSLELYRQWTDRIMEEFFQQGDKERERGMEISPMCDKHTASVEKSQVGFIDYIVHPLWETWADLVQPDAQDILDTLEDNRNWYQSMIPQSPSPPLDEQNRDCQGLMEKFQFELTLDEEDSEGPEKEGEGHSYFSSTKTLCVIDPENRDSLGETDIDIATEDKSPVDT

Row | Compound | IC50 [nM] | PDE4B2 (percent at a single concentration, printed in the pIC50 column) (at 0.32 uM) [% at 0.32 uM]
1 | O=C(N[C@H]1CC[C@@H](n2c(=O)c3cc(F)cnc3n(-c3ccc(Cc4ccccc4)cc3)c2=O)CC1)c1cn2cc(F)ccc2n1 [Example 37, N-{cis-4-[1-(4-benzylphenyl)-6-fluoro-2,4-dioxo-1,4-dihydropyrido[2,3-d]pyrimidin-3(2H)-yl]cyclohexyl}-6-fluoroimidazo[1,2-a]pyridine-2-carboxamide] | 6.31 | 
2 | O=C(N[C@H]1CC[C@@H](n2c(=O)c3cc(F)cnc3n(CCc3ccccc3)c2=O)CC1)c1cn2cc(F)ccc2n1 [Example 38, 6-fluoro-N-{cis-4-[6-fluoro-2,4-dioxo-1-(2-phenylethyl)-1,4-dihydropyrido[2,3-d]pyrimidin-3(2H)-yl]cyclohexyl}imidazo[1,2-a]pyridine-2-carboxamide] | 3.16 | 
3 | O=C(NC1CN2CCC1CC2)c1cccc(-n2c(=O)n([C@H]3CC[C@@H](NC(=O)c4cn5cc(F)ccc5n4)CC3)c(=O)c3cc(F)cnc32)c1 (stereo partly drawn) [Example 42, N-{cis-4-[1-{3-[(1-azabicyclo[2.2.2]oct-3-ylamino)carbonyl]phenyl}-6-fluoro-2,4-dioxo-1,4-dihydropyrido[2,3-d]pyrimidin-3 (2H)-yl]cyclohexyl}-6-fluoroimidazo[1,2-a]pyridine-2-carboxamide] | 20 | 
4 | N[C@H]1CC[C@@H](n2c(=O)c3cc(F)cnc3n(-c3cccc(-c4ccccc4CN4CCOCC4)c3)c2=O)CC1 [Example 46, 3-(cis-4-aminocyclohexyl)-6-fluoro-1-[2′-(morpholin-4-ylmethyl)biphenyl-3-yl]pyrido[2,3-d]pyrimidine-2,4(1H,3H)-dione] | 2 | 
5 | Cc1ccc(-c2cccc(-n3c(=O)n([C@H]4CC[C@@H](N)CC4)c(=O)c4cc(F)cnc43)c2)cc1 [Example 47, 3-(cis-4-aminocyclohexyl)-6-fluoro-1-(4′-methylbiphenyl-3-yl)pyrido[2,3-d]pyrimidine-2,4(1H,3H)-dione] | 2 | 
6 | O=C(N[C@H]1CC[C@@H](n2c(=O)c3cc(F)cnc3n(-c3cccc(-c4ccccc4CN4CCOCC4)c3)c2=O)CC1)C1(O)CC1 [Example 48, N-{cis-4-[6-fluoro-1-[2′-(morpholin-4-ylmethyl)biphenyl-3-yl]-2,4-dioxo-1,4-dihydropyrido[2,3-d]pyrimidin-3(2H)-yl]cyclohexyl}-1-hydroxycyclopropanecarboxamide] | 0.398 | 
7 | CN(C)Cc1ccc(-c2cccc(-n3c(=O)n([C@H]4CC[C@@H](N)CC4)c(=O)c4cc(F)cnc43)c2)cc1 [Example 49, 3-(cis-4-aminocyclohexyl)-1-{4′-[(dimethylamino)methyl]biphenyl-3-yl}-6-fluoropyrido[2,3-d]pyrimidine-2,4(1H,3H)-dione] | 12.6 | 
8 | O=C(N[C@H]1CC[C@@H](n2c(=O)c3cc(F)cnc3n(-c3cccc(-c4ccc(CCN5CCOCC5)cc4)c3)c2=O)CC1)c1cn2cc(F)ccc2n1 [Example 50, 6-fluoro-N-{cis-4-[6-fluoro-1-[4′-(2-morpholin-4-ylethyl)biphenyl-3-yl]-2,4-dioxo-1,4-dihydropyrido[2,3-d]pyrimidin-3(2H)-yl]cyclohexyl}imidazo[1,2-c]pyridine-2-carboxamide] | 0.00794 | 
9 | CC(C)(C)OC(=O)N1CCN(Cc2ccc(-c3cccc(-n4c(=O)n([C@H]5CC[C@@H](NC(=O)c6cn7cc(F)ccc7n6)CC5)c(=O)c5cc(F)cnc54)c3)cc2)CC1 [Example 51] | 0.0398 | 
10 | CN(C)C1(C(=O)N[C@H]2CC[C@@H](n3c(=O)c4cc(F)cnc4n(-c4cccc(-c5ccccc5)c4)c3=O)CC2)CC1 [Example 53, N-[cis-4-(1-biphenyl-3-yl-6-fluoro-2,4-dioxo-1,4-dihydropyrido[2,3-d]pyrimidin-3(2H)-yl)cyclohexyl]-1-(dimethylamino)cyclopropanecarboxamide] | 0.0158 | 
11 | O=C(N[C@H]1CC[C@@H](n2c(=O)c3cc(F)cnc3n(-c3cccc(-c4ccc(CN5CC[C@@H](O)C5)cc4)c3)c2=O)CC1)c1cn2cc(F)ccc2n1 [Example 56, 6-fluoro-N-{cis-4-[6-fluoro-1-(4′-{[(3R)-3-hydroxypyrrolidin-1-yl]methyl}biphenyl-3-yl)-2,4-dioxo-1,4-dihydropyrido[2,3-d]pyrimidin-3(2H)-yl]cyclohexyl}imidazo[1,2-a]pyridine-2-carboxamide] | 0.0251 | 
12 | O=C(N[C@H]1CC[C@@H](n2c(=O)c3cc(F)cnc3n(-c3cccc(-c4ccc(OCCO)cc4)c3)c2=O)CC1)c1cn2cc(F)ccc2n1 [Example 58, 6-fluoro-N-{cis-4-[6-fluoro-1-[4′-(2-hydroxyethoxy)biphenyl-3-yl]-2,4-dioxo-1,4-dihydropyrido[2,3-d]pyrimidin-3(2H)-yl]cyclohexyl}imidazo[1,2-a]pyridine-2-carboxamide] | 0.0158 | 
13 | C[C@H](CO)NCc1ccc(-c2cccc(-n3c(=O)n([C@H]4CC[C@@H](NC(=O)c5cn6cc(F)ccc6n5)CC4)c(=O)c4cc(F)cnc43)c2)cc1 [Example 59] | 0.158 | 
14 | O=C(N[C@H]1CC[C@@H](n2c(=O)c3cc(F)cnc3n(-c3cccc(-c4ccccc4C(=O)O)c3)c2=O)CC1)c1cn2cc(F)ccc2n1 [Example 60, 3′-[6-fluoro-3-(cis-4-{[(6-fluoroimidazo[1,2-a]pyridin-2-yl)carbonyl]amino}cyclohexyl)-2,4-dioxo-3,4-dihydropyrido[2,3-d]pyrimidin-1(2H)-yl]biphenyl-2-carboxylic acid] | 6.31 | 

Now from value to compound:

Row | IC50 [nM] | PDE4B2 (percent at a single concentration, printed in the pIC50 column) (at 0.32 uM) [% at 0.32 uM] | Compound
15 | 10 |  | O=C(N[C@H]1CC[C@@H](n2c(=O)c3cc(F)cnc3n(-c3ccc4c(cnn4Cc4ccccc4)c3)c2=O)CC1)c1cn2cc(F)ccc2n1 [Example 39, N-{cis-4-[1-(1-benzyl-1H-indazol-5-yl)-6-fluoro-2,4-dioxo-1,4-dihydropyrido[2,3-d]pyrimidin-3 (2H)-yl]cyclohexyl}-6-fluoroimidazo[1,2-a]pyridine-2-carboxamide]
16 |  | 50 | CN1CCC(n2c(=O)n([C@H]3CC[C@@H](NC(=O)c4cn5cc(F)ccc5n4)CC3)c(=O)c3cc(F)cnc32)CC1 [Example 40, 6-fluoro-N-{cis-4-[6-fluoro-1-(1-methylpiperidin-4-yl)-2,4-dioxo-1,4-dihydropyrido[2,3-d]pyrimidin-3(2H)-yl]cyclohexyl}imidazo[1,2-c]pyridine-2-carboxamide]
17 | 0.0631 |  | O=C(N[C@H]1CC[C@@H](n2c(=O)c3cc(F)cnc3n(-c3cccc(Sc4ccccc4)c3)c2=O)CC1)c1cn2cc(F)ccc2n1 [Example 44, 6-fluoro-N-{cis-4-[6-fluoro-2,4-dioxo-1-[3-(phenylthio)phenyl]-1,4-dihydropyrido[2,3-d]pyrimidin-3(2H)-yl]cyclohexyl}imidazo[1,2-a]pyridine-2-carboxamide]
18 | 0.316 |  | CC(C)(C)OC(=O)N[C@H]1CC[C@@H](n2c(=O)c3cc(F)cnc3n(-c3cccc(-c4ccccc4CN4CCOCC4)c3)c2=O)CC1 [Example 45]
19 | 2.51 |  | Cc1ccccc1-c1cccc(-n2c(=O)n([C@H]3CC[C@@H](N)CC3)c(=O)c3cc(F)cnc32)c1 [Example 52, 3-(cis-4-aminocyclohexyl)-6-fluoro-1-(2′-methylbiphenyl-3-yl)pyrido[2,3-d]pyrimidine-2,4(1H,3H)-dione]
20 | 0.0158 |  | O=C(N[C@H]1CC[C@@H](n2c(=O)c3cc(F)cnc3n(-c3cccc(-c4ccc(CN5CCNCC5)cc4)c3)c2=O)CC1)c1cn2cc(F)ccc2n1 [Example 54, 6-fluoro-N-{cis-4-[6-fluoro-2,4-dioxo-1-[4′-(piperazin-1-ylmethyl)biphenyl-3-yl]-1,4-dihydropyrido[2,3-d]pyrimidin-3(2H)-yl]cyclohexyl}imidazo[1,2-a]pyridine-2-carboxamide]
21 | 0.1 |  | O=C(N[C@H]1CC[C@@H](n2c(=O)c3cc(F)cnc3n(-c3cccc(-c4ccccn4)c3)c2=O)CC1)c1cn2cc(F)ccc2n1 [Example 55, 6-fluoro-N-{cis-4-[6-fluoro-2,4-dioxo-1-(3-pyridin-2-ylphenyl)-1,4-dihydropyrido[2,3-d]pyrimidin-3(2H)-yl]cyclohexyl}imidazo[1,2-a]pyridine-2-carboxamide]
22 | 0.1 |  | CN(Cc1ccc(-c2cccc(-n3c(=O)n([C@H]4CC[C@@H](NC(=O)c5cn6cc(F)ccc6n5)CC4)c(=O)c4cc(F)cnc43)c2)cc1)C(C)(C)C [Example 57, N-{cis-4-[1-(4′-{[tert-butyl(methyl)amino]methyl}biphenyl-3-yl)-6-fluoro-2,4-dioxo-1,4-dihydropyrido[2,3-d]pyrimidin-3(2H)-yl]cyclohexyl}-6-fluoroimidazo[1,2-a]pyridine-2-carboxamide]
23 | 0.02 |  | CNC1CCN(Cc2ccc(-c3cccc(-n4c(=O)n([C@H]5CC[C@@H](NC(=O)c6cn7cc(F)ccc7n6)CC5)c(=O)c5cc(F)cnc54)c3)cc2)CC1 [Example 61, 6-fluoro-N-{cis-4-[6-fluoro-1-(4′-{[4-(methylamino)piperidin-1-yl]methyl}biphenyl-3-yl)-2,4-dioxo-1,4-dihydropyrido[2,3-d]pyrimidin-3(2H)-yl]cyclohexyl}imidazo[1,2-a]pyridine-2-carboxamide]
24 | 0.316 |  | CC(=O)N[C@H]1CC[C@@H](n2c(=O)c3cc(F)cnc3n(-c3cccc(-c4ccccc4CN4CCOCC4)c3)c2=O)CC1 [Example 62, N-{cis-4-[6-fluoro-1-[2′-(morpholin-4-ylmethyl)biphenyl-3-yl]-2,4-dioxo-1,4-dihydropyrido[2,3-d]pyrimidin-3(2H)-yl]cyclohexyl}acetamide]
